Here are results for 21 compounds from patent US8865714B2, “Piperazine compound capable of inhibiting prostaglandin D synthase” (Taiho Pharmaceutical Co., Ltd., priority 2009, dated 2014).

For this assay, the target named is human H-PGDS (Homo sapiens (Human), UniProt O60760). In words: Hematopoietic prostaglandin D synthase (H-PGDS) inhibiting action. The format is biochemical. To be noted: for inhibition at 0.1 µM / H-PGDS inhibition rate (%): compound at 0.1 μM, relative to the control group; for inhibition at 0.1 µM: read-out: H-PGDS inhibition rate (%). The protocol:
More specifically, the reaction mixture (49 μL) containing 100 mM Tris-HCl (pH 8.0), 1 mM reduced glutathione, 0.1 mg/mL γ-globulin, and human H-PGDS (q.s.), and a compound (final concentration: 0.01-100 μM) was preincubated at 25° C. for 5 minutes. Note that a DMSO solution (final concentration: 1%) was added to the solvent control group. Subsequently, 1 μL of [14C] prostaglandin H2 (final concentration: 10 μM) was added to start the reaction. One minute after the start of the reaction, 250 μL of a reaction stopper solution (diethylether/methanol/1 M citric acid (30/4/1) at a temperature of −20° C. was added to stop the reaction. After the reaction was stopped, 50 μL of the upper layer portion (organic solvent phase) was applied to a TLC plate and developed at −20° C. for 45 minutes (developing solvent: diethylether/methanol/acetic acid (90/2/1)). After drying the TLC plate, the TLC plate was exposed to an imaging plate for 1 to 24 hours, and the radioactivity corresponding to prostaglandin D2 (PGD2) was analyzed using an image analyzer (produced by Fujifilm Corporation).

The mark [1] stands for this setting: human H-PGDS, [14C] prostaglandin H2 10 μM.
[2] abbreviates: human H-PGDS, [14C] prostaglandin H2 10 μM, read-out: IC50.

Like-named read-outs stand apart in the source and are kept apart here. Bounds are passed on as bounds.

human H-PGDS, sequence (O60760 whole entry): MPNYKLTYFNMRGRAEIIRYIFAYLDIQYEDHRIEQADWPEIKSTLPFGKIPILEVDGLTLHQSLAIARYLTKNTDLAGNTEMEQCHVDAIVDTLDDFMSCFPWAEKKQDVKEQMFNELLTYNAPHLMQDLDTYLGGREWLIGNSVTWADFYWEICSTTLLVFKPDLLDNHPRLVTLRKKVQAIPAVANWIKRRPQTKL

In general, inhibition refers to the drop in the measured response relative to a control, in per cent. On to `Cn1cccc1C(=O)N1CCN(C(=O)Nc2ccc(N3CCC(C(=O)N4CCCCC4)CC3)cc2)CC1` [Example 14, 4-((1-methylpyrrol-2-yl)-carbonyl)-N-(4-(4-piperidin-1-yl-carbonylpiperidin-1-yl)-phenyl)-1-piperazinecarboxamide], for which the inhibition at 0.1 µM under setting [1] is 73.6%. A word on the IC50: it is the concentration that gives 50% inhibition. Turning to `O=C(Nc1ccc(N2CCC(C(=O)N3CCOCC3)CC2)cc1)N1CCN(C(=O)c2ccno2)CC1` [Reference Example 8, 4-((isoxazol-5-yl)-carbonyl)-N-(4-(4-morpholin-1-yl-carbonylpiperidin-1-yl)-phenyl)-1-piperazinecarboxamide], the “H-PGDS inhibition rate (%)” value under setting [1] is −6.6%. Under setting [2], the IC50 was over 1000 nM.

As to `Cn1cccc1C(=O)N1CCN(C(=O)Nc2ccc(N3CCC(CCn4cccn4)CC3)cc2)CC1` [Example 10, 4-((1-methylpyrrol-2-yl)-carbonyl)-N-(4-(4-(2-(pyrazol-1-yl)-ethyl)piperidin-1-yl)-phenyl)-1-piperazinecarboxamide], under setting [1], the inhibition at 0.1 µM was found to be 74.3%. Still for that read-out and setting: to `Cn1cccc1C(=O)N1CCN(C(=O)Nc2ccc(N3CCC(CN4CCOCC4)CC3)cc2)CC1` [Example 4, 4-((1-methylpyrrol-2-yl)-carbonyl)-N-(4-(4-morpholinomethylpiperidin-1-yl)-phenyl)-1-piperazinecarboxamide] belongs 61.5%; to `Cn1cccc1C(=O)N1CCN(C(=O)Nc2ccc(N3CCC(CCCn4ccnn4)CC3)cc2)CC1` [Example 12, 4-((1-methylpyrrol-2-yl)-carbonyl)-N-(4-(4-(3-(1,2,3-triazol-1-yl)-propyl)piperidin-1-yl)-phenyl)-1-piperazinecarboxamide], 72.7%; to `Cn1cccc1C(=O)N1CCN(C(=O)Nc2ccc(N3CCC(C(=O)NCCN4CCOCC4)CC3)cc2)CC1` [Example 16, 4-((1-methylpyrrol-2-yl)-carbonyl)-N-(4-(4-(2-morpholinoethylcarbamoyl)piperidin-1-yl)-phenyl)-1-piperazinecarboxamide], 61.1%. `O=C(Nc1ccc(N2CCC(C(=O)N3CCOCC3)CC2)cc1)N1CCN(C(=O)c2ccco2)CC1` [Reference Example 6, 4-((furan-2-yl)-carbonyl)-N-(4-(4-morpholin-1-yl-carbonylpiperidin-1-yl)-phenyl)-1-piperazinecarboxamide]: the “H-PGDS inhibition rate (%)” value under setting [1] was −2.7%. In addition, the IC50 under setting [2] is over 1000 nM. `Cn1ccc(C(=O)N2CCN(C(=O)Nc3ccc(N4CCC(C(=O)N5CCOCC5)CC4)cc3)CC2)c1` [Reference Example 3, 4-((1-methylpyrrol-3-yl)-carbonyl)-N-(4-(4-morpholin-1-yl-carbonylpiperidin-1-yl)-phenyl)-1-piperazinecarboxamide]: under setting [1], the “H-PGDS inhibition rate (%)” value is reported as −4.8%. In addition, under setting [2], the IC50 was over 1000 nM.

On to `CN1CCN(C(=O)C2CCN(c3ccc(NC(=O)N4CCN(C(=O)c5cccn5C)CC4)cc3)CC2)CC1` [Example 15, 4-((1-methylpyrrol-2-yl)-carbonyl)-N-(4-(4-(4-methylpiperazin-1-yl-carbonyl)piperidin-1-yl)-phenyl)-1-piperazinecarboxamide], for which, under setting [1], the inhibition at 0.1 µM was 61.3%. `O=C(Nc1ccc(C(F)(F)F)cc1)N1CCN(C(=O)c2cccc(F)n2)CC1` [Reference Example 18, 4-(6-fluoropyridine-2-carbonyl)piperazine-1-carboxylic acid-(4-trifluoromethylphenyl)amide] returned a concentration for half-maximal inhibition (IC50) of over 1000 nM. Take `Cn1cccc1C(=O)N1CCN(C(=O)Nc2ccc(N3CCC(O)CC3)cc2)CC1` [Example 1, N-(4-(4-hydroxypiperidin-1-yl)-phenyl)-4-((1-methylpyrrol-2-yl)-carbonyl)-1-piperazinecarboxamide]: the inhibition at 0.1 µM under setting [1] worked out at 62.2%. Besides, the IC50 under setting [2] came to 58 nM. Take `O=C(Nc1ccc(N2CCC(C(=O)N3CCOCC3)CC2)cc1)N1CCN(C(=O)c2ccoc2)CC1` [Reference Example 7, 4-((furan-3-yl)-carbonyl)-N-(4-(4-morpholin-1-yl-carbonylpiperidin-1-yl)-phenyl)-1-piperazinecarboxamide]: the “H-PGDS inhibition rate (%)” value under setting [1] was −4.2%. The IC50 under setting [2] is over 1000 nM. Consider `O=C(Nc1ccc(N2CCC(C(=O)N3CCOCC3)CC2)cc1)N1CCN(C(=O)c2cccs2)CC1` [Reference Example 4, 4-((thiophen-2-yl)-carbonyl)-N-(4-(4-morpholin-1-yl-carbonylpiperidin-1-yl)-phenyl)-1-piperazinecarboxamide], for which the “H-PGDS inhibition rate (%)” value under setting [1] is reported as 18.0%. Further, under setting [2], the IC50 worked out at 340 nM.

Consider `O=C(Nc1ccc(N2CCC(C(=O)N3CCOCC3)CC2)cc1)N1CCN(C(=O)c2ccsc2)CC1` [Reference Example 5, 4-((thiophen-3-yl)-carbonyl)-N-(4-(4-morpholin-1-yl-carbonylpiperidin-1-yl)-phenyl)-1-piperazinecarboxamide], for which the “H-PGDS inhibition rate (%)” value under setting [1] is given as 9.4%. The half-inhibitory concentration (IC50) under setting [2] amounted to 732 nM. The like results for “4-((1-ethylpyrrol-2-yl)-carbonyl)-N-(4-(4-morpholin-1-yl-carbonylpiperidin-1-yl)-phenyl)-1-piperazinecarboxamide [Example 13]” were, in that order, 51.8% and 91 nM. In the case of `Cn1cccc1C(=O)N1CCN(C(=O)Nc2ccc(N3CCC(CCn4ccnn4)CC3)cc2)CC1` [Example 7, 4-((1-methylpyrrol-2-yl)-carbonyl)-N-(4-(4-(2-(1,2,3-triazol-1-yl)-ethyl)piperidin-1-yl)-phenyl)-1-piperazinecarboxamide], the inhibition at 0.1 µM under setting [1] came out at 66.7%. As for `O=C(Nc1ccc(N2CCC(C(=O)N3CCOCC3)CC2)cc1)N1CCN(C(=O)C2CCCC2)CC1` [Reference Example 10, 4-(cyclopentylcarbonyl)-N-(4-(4-morpholin-1-yl-carbonylpiperidin-1-yl)-phenyl)-1-piperazinecarboxamide], the “H-PGDS inhibition rate (%)” value under setting [1] is −2.2%. Besides, the IC50 under setting [2] was over 1000 nM. Consider `Cn1ccnc1C(=O)N1CCN(C(=O)Nc2ccc(N3CCC(C(=O)N4CCOCC4)CC3)cc2)CC1` [Reference Example 9, 4-((1-methylimidazol-2-yl)-carbonyl)-N-(4-(4-morpholin-1-yl-carbonylpiperidin-1-yl)-phenyl)-1-piperazinecarboxamide], for which, under setting [1], the “H-PGDS inhibition rate (%)” value is −2.8%. Under setting [2], the IC50 was over 1000 nM.

With `Cn1cccc1C(=O)N1CCN(C(=O)Nc2ccc(N3CCC(CCN4CCOCC4)CC3)cc2)CC1` [Example 6, 4-((1-methylpyrrol-2-yl)-carbonyl)-N-(4-(4-morpholinoethylpiperidin-1-yl)-phenyl)-1-piperazinecarboxamide], the inhibition at 0.1 µM under setting [1] worked out at 68.3%.

For “4-((1-methylindol-2-yl)-carbonyl)-N-(4-(4-morpholin-1-yl-carbonylpiperidin-1-yl)-phenyl)-1-piperazinecarboxamide [Reference Example 12]”, the “H-PGDS inhibition rate (%)” value under setting [1] is −0.4%. Further, the IC50 under setting [2] is over 1000 nM.

For `Cn1cccc1C(=O)N1CCN(C(=O)Nc2ccc(N3CCC(CCn4cncn4)CC3)cc2)CC1` [Example 8, 4-((1-methylpyrrol-2-yl)-carbonyl)-N-(4-(4-(2-(1,2,4-triazol-1-yl)-ethyl)piperidin-1-yl)-phenyl)-1-piperazinecarboxamide], under setting [1], the inhibition at 0.1 µM is 58.9%. For the same compound, the concentration for half-maximal inhibition (IC50) under setting [2] was 62 nM.
